Source: paper PMC9687610, “Adenosine-Mimicking Derivatives of 3-Aminopyrazine-2-Carboxamide: Towards Inhibitors of Prolyl-tRNA Synthetase with Antimycobacterial Activity” (Biomolecules, 2022)
Values after ≈ are worked out from the molar mass of the structure shown. Read-outs that look alike come from different tables or passages of the source.

Assays:
[1] = system: Mycobacterium tuberculosis H37Ra ITM-M006710 (ATCC 9431); experiment: Microplate Alamar Blue Assay (MABA), Mtb H37Ra; type: cell-based; details: Mycobacterium tuberculosis, 120 h
[2] = system: Mycobacterium smegmatis DSM 43465 (ATCC 607); experiment: Microplate Alamar Blue Assay (MABA), M. smegmatis; type: cell-based; details: Mycolicibacterium smegmatis, read-out: M. smegmatis MIC
[3] = system: M. aurum DSM 43999 (ATCC 23366); experiment: Microplate Alamar Blue Assay (MABA), M. aurum; type: cell-based; details: Mycolicibacterium aurum, read-out: M. aurum MIC
[4] = system: Staphylococcus aureus subsp. aureus CCM 4223 (ATCC 29213); experiment: Antibacterial microdilution broth (EUCAST), SA; type: cell-based; details: Staphylococcus aureus, read-out: SA MIC
[5] = system: Staphylococcus aureus subsp. aureus methicillin-resistant (MRSA) CCM 4750 (ATCC 43300); experiment: Antibacterial microdilution broth (EUCAST), MRSA; type: cell-based; details: Staphylococcus aureus, read-out: MRSA MIC
[6] = system: Staphylococcus epidermidis CCM 4418 (ATCC 12228); experiment: Antibacterial microdilution broth (EUCAST), SE; type: cell-based; details: read-out: SE MIC
[7] = system: Enterococcus faecalis CCM 4224 (ATCC 29212); experiment: Antibacterial microdilution broth (EUCAST), EF; type: cell-based; details: Enterococcus faecalis, read-out: EF MIC
[8] = system: Escherichia coli CCM 3954 (ATCC 25922); experiment: Antibacterial microdilution broth (EUCAST), EC; type: cell-based; details: Escherichia coli, read-out: EC MIC
[9] = system: Acinetobacter baumannii DSM 30007 (ATCC 19606); experiment: Antibacterial microdilution broth (EUCAST), ACI; type: cell-based; details: Acinetobacter baumannii, read-out: ACI MIC
[10] = system: Pseudomonas aeruginosa CCM 3955 (ATCC 27853); experiment: Antibacterial microdilution broth (EUCAST), PA; type: cell-based; details: Pseudomonas aeruginosa, read-out: PA MIC
[11] = system: Candida albicans CCM 8320 (ATCC 24433); experiment: Antifungal microdilution broth (EUCAST), CA; type: cell-based; details: Candida albicans, read-out: CA MIC
[12] = system: Candida krusei CCM 8271 (ATCC 6258); experiment: Antifungal microdilution broth (EUCAST), CK; type: cell-based; details: Pichia kudriavzevii, read-out: CK MIC
[13] = system: Candida parapsilosis CCM 8260 (ATCC 22019); experiment: Antifungal microdilution broth (EUCAST), CP; type: cell-based; details: Lodderomyces parapsilosis, read-out: CP MIC
[14] = system: Candida tropicalis CCM 8264 (ATCC 750); experiment: Antifungal microdilution broth (EUCAST), CT; type: cell-based; details: Candida tropicalis, read-out: CT MIC
[15] = system: Aspergillus fumigatus ATCC 204305; experiment: Antifungal microdilution broth (EUCAST), AF; type: cell-based; details: Aspergillus fumigatus, read-out: AF MIC
[16] = system: Aspergillus flavus CCM 8363; experiment: Antifungal microdilution broth (EUCAST), AFla; type: cell-based; details: Aspergillus flavus, read-out: AFla MIC
[17] = system: Lichtheimia corymbifera CCM 8077; experiment: Antifungal microdilution broth (EUCAST), LC; type: cell-based; details: Lichtheimia corymbifera, read-out: LC MIC
[18] = system: Trichophyton interdigitale CCM 8377 (ATCC 9533); experiment: Antifungal microdilution broth (EUCAST), TI; type: cell-based; details: Trichophyton interdigitale, 72 h, read-out: TI MIC
[19] = system: HepG2 human hepatocellular carcinoma cells; experiment: In vitro HepG2 cytotoxicity (CellTiter 96); details: Homo sapiens, HepG2, 24 h, read-out: HepG2 IC50, 24 h incubation; * limit = highest evaluated concentration (precipitation in medium); ** over the 1000 µM limit
[20] = system: Klebsiella pneumoniae CCM 4415 (ATCC 10031); experiment: Antibacterial microdilution broth (EUCAST), KP; details: read after 24 h
[21] = pH 6.6, MABA, Middlebrook 7H9 broth pH 6.6, resazurin after 120 h, read-out: Mtb H37Ra MIC

Row | SMILES | MIC [1, 21] [µg/mL] | MIC ([2]; MABA, resazurin after 48 h) [µg/mL] | MIC ([3]; MABA, resazurin after 72 h) [µg/mL] | MIC ([4]; read after 24 h) [µM] | MIC ([5]; read after 24 h) [µM] | MIC ([6]; read after 24 h) [µM] | MIC ([7]; read after 24 h) [µM] | MIC ([8]; read after 24 h) [µM] | MIC ([9]; read after 24 h) [µM] | MIC ([10]; read after 24 h) [µM] | MIC ([11]; read after 24 h) [µM] | MIC ([12]; read after 24 h) [µM] | MIC ([13]; read after 24 h) [µM] | MIC ([14]; read after 24 h) [µM] | MIC ([15]; ATCC204305, read after 24 h) [µM] | MIC ([16]; CCM8363, read after 24 h) [µM] | MIC ([17]; CCM8077, read after 24 h) [µM] | MIC [18] [µM] | melting point [°C] | KP MIC [20] [µM] | further results
1 | Cc1ccccc1C(=O)Nc1nccnc1C(N)=O [Compound 2] | ≥ 500 | ≥ 500 | ≥ 500 | > 500 | > 500 | > 500 | > 500 | > 500 | > 500 | > 500 | > 125 | > 125 | > 125 | > 125 | > 125 | > 125 | > 125 | > 125 | 234.4 to 235.9 | > 500 | IC50 [19]: 422 µM
2 | COC(=O)c1nccnc1NC(=O)c1ccc(C)cc1 [Compound 4e] | 250 (≈ 922 µM) | 62.5 (≈ 230 µM) | 250 (≈ 922 µM) | > 500 | > 500 | > 500 | > 500 | > 500 | > 500 | > 500 | > 500 | > 500 | > 500 | > 500 | > 500 | > 500 | > 500 | > 500 | 158.9 to 161.2 | > 500 | –
3 | COC(=O)c1nccnc1NC(=O)c1ccc(OC)cc1 [Compound 9e] | ≥ 500 | ≥ 500 | ≥ 500 | > 500 | > 500 | > 500 | > 500 | > 500 | > 500 | > 500 | > 500 | > 500 | > 500 | > 500 | > 500 | > 500 | > 500 | > 500 | 144.5 to 145 | > 500 | –
4 | COC(=O)c1nccnc1NC(=O)c1ccccc1F [Compound 10e] | 250 (≈ 908 µM) | ≥ 500 | ≥ 500 | – | – | – | – | – | – | – | – | – | – | – | – | – | – | – | 123.2 to 125.4 | – | –
5 | COC(=O)c1nccnc1NC(=O)c1cccc(F)c1 [Compound 11e] | 250 (≈ 908 µM) | ≥ 500 | ≥ 500 | – | – | – | – | – | – | – | – | – | – | – | – | – | – | – | 135.5 to 136.3 | – | –
6 | COC(=O)c1nccnc1NC(=O)c1ccc(F)cc1 [Compound 12e] | ≥ 500 | ≥ 500 | ≥ 500 | – | – | – | – | – | – | – | – | – | – | – | – | – | – | – | 151.1 to 153.6 | – | –
7 | COC(=O)c1nccnc1NC(=O)c1ccccc1Cl [Compound 13e] | ≥ 500 | 250 (≈ 857 µM) | ≥ 500 | – | – | – | – | – | – | – | – | – | – | – | – | – | – | – | 114.5 to 115.6 | – | –
8 | COC(=O)c1nccnc1NC(=O)c1cccc(Cl)c1 [Compound 14e] | 250 (≈ 857 µM) | 125 (≈ 429 µM) | 250 (≈ 857 µM) | > 500 | > 500 | > 500 | > 500 | > 500 | > 500 | > 500 | > 500 | > 500 | > 500 | > 500 | > 500 | > 500 | > 500 | > 500 | 146.3 to 147.1 | > 500 | –
9 | COC(=O)c1nccnc1NC(=O)c1ccccc1Br [Compound 16e] | 125 (≈ 372 µM) | ≥ 500 | ≥ 500 | > 500 | > 500 | > 500 | > 500 | > 500 | > 500 | > 500 | > 500 | > 500 | > 500 | > 500 | > 500 | > 500 | > 500 | > 500 | 168.4 to 169.2 | > 500 | –
10 | COC(=O)c1nccnc1NC(=O)c1cccc(Br)c1 [Compound 17e] | ≥ 500 | ≥ 500 | ≥ 500 | > 500 | > 500 | > 500 | > 500 | > 500 | > 500 | > 500 | > 500 | > 500 | > 500 | > 500 | > 500 | > 500 | > 500 | > 500 | 123.3 to 125.2 | > 500 | –
11 | COC(=O)c1nccnc1NC(=O)c1ccc(Br)cc1 [Compound 18e] | ≥ 500 | ≥ 500 | ≥ 500 | > 500 | > 500 | > 500 | > 500 | > 500 | > 500 | > 500 | > 500 | > 500 | > 500 | > 500 | > 500 | > 500 | > 500 | > 500 | 195.1 to 197 | > 500 | –
12 | NC(=O)c1nccnc1NC(=O)c1ccccc1O [Compound 22] | – | ≥ 500 | ≥ 500 | – | – | – | – | – | – | – | – | – | – | – | – | – | – | – | > 300 | – | MIC ([1]; pH 6.6, read-out: Mtb H37Ra MIC, MABA, Middlebrook 7H9 broth pH 6.6, resazurin after 120 h): ≥ 500 µg/mL; IC50 [19]: > 250 µM
13 | NC(=O)c1nccnc1NC(=O)c1ccc(O)cc1 [Compound 23] | ≥ 500 | ≥ 500 | ≥ 500 | – | – | – | – | – | – | – | – | – | – | – | – | – | – | – | 243.7 to 245.1 | – | IC50 [19]: > 500 µM
14 | NC(=O)c1nccnc1NC(=O)c1ccc(N)cc1 [Compound 24, 3-(4-aminobenzamido)pyrazine-2-carboxamide] | 125 (≈ 486 µM) | ≥ 250 | ≥ 250 | – | – | – | – | – | – | – | – | – | – | – | – | – | – | – | > 300 | – | IC50 [19]: 929 µM
15 | COC(=O)c1nccnc1NC(=O)C1CCCCC1 [Compound 27e] | ≥ 500 | 125 (≈ 475 µM) | ≥ 500 | > 500 | > 500 | > 500 | > 500 | > 500 | > 500 | > 500 | > 500 | > 500 | > 500 | > 500 | > 500 | > 500 | > 500 | > 500 | 106.9 to 108.3 | > 500 | –
16 | COC(=O)c1nccnc1NC(=O)C12CC3CC(CC(C3)C1)C2 [Compound 28e] | ≥ 125 | – | – | – | – | – | – | – | – | – | – | – | – | – | – | – | – | > 125 | 225.6 to 227.2 | > 125 | MIC ([2]; 48 h): ≥ 125 µg/mL; MIC ([3]; 72 h): ≥ 125 µg/mL; MIC ([4]; 24 h): > 125 µM; MIC ([5]; 24 h): > 125 µM; MIC ([6]; 24 h): > 125 µM; MIC ([7]; 24 h): > 125 µM; MIC ([8]; 24 h): > 125 µM; MIC ([9]; 24 h): > 125 µM; MIC ([10]; 24 h): > 125 µM; MIC ([11]; 24 h): > 125 µM; MIC ([12]; 24 h): > 125 µM; MIC ([13]; 24 h): > 125 µM; MIC ([14]; 24 h): > 125 µM; MIC ([15]; ATCC204305, 24 h): > 125 µM; MIC ([16]; CCM8363, 24 h): > 125 µM; MIC ([17]; CCM8077, 24 h): > 125 µM
